The record followed here is US20160194299A1 (priority 2013, published 2016).

Converted amounts (≈) assume the structure as drawn. Where two headings read alike, the source gives them in different places.

The test system of one series is Mtb. In words: microbe, parasite or virus in culture. It counts as cell-based, Mycobacterium tuberculosis. Conditions: Mycobacterium tuberculosis.
The next series can be described thus: in vitro. The note with it: African green monkey.
Setting [1] is: read-out: MIC, microplate alamar blue assay (MABA; I).

For the molecule `CCOC(=O)NC(=O)c1cc(C)sc1NC(=O)c1nc2ccccc2s1` [Compound 14], the MIC with Mtb (read-out: MIC (I)) was less than 1 µg/mL.
On to `CCOC(=O)NC(=O)c1cc(Cl)sc1NC(=O)c1nc2ccccc2s1` [Compound 15], for which, in the series on Mtb (read-out: MIC (I)), the MIC is less than 1 µg/mL.
`CCOC(=O)NC(=O)c1cc(F)sc1NC(=O)c1nc2ccccc2s1` [Compound 16] displayed a CC50 in “in vitro” of 25 to 50 µg/mL (≈ 63.5 to 127 µM). In addition, the MIC in the series on Mtb (read-out: MIC (I)) is less than 1 µg/mL.
Regarding `O=C(NC(=O)c1cc(F)sc1NC(=O)c1nc2ccccc2s1)OCC(F)(F)F` [Compound 17], the CC50 in “in vitro” is less than 25 µg/mL. Also, the MIC in the series on Mtb (read-out: MIC (I)) is less than 1 µg/mL.
As to `CCCCOC(=O)NC(=O)c1ccsc1NC(=O)c1nc2ccccc2s1` [Compound 19], the MIC in the series on Mtb (read-out: MIC (I)) was less than 1 µg/mL.
Still for that read-out and setting: for `COC(=O)NC(=O)c1ccsc1NC(=O)c1nc2ccccc2s1` [Compound 21] the value was less than 1 µg/mL; for `CCOC(=O)NC(=O)c1ccsc1NC(=O)c1cncc(NC(C)=O)c1` [Compound 22], less than 1 µg/mL.
As to `CC(C)(C)OC(=O)NC(=O)c1ccsc1NC(=O)c1nc2ccccc2s1` [Compound 23], in the series on Mtb (read-out: MIC (I)), the MIC was less than 1 µg/mL.
The molecule `CC(OC(=O)NC(=O)c1ccsc1NC(=O)c1nc2ccccc2s1)C(F)(F)F` (centres unmarked) [Compound 24] gave a CC50 in the series “in vitro” of less than 25 µg/mL. The MIC with Mtb (read-out: MIC (I)) was less than 1 µg/mL.
The like results for `CC(C)(OC(=O)NC(=O)c1ccsc1NC(=O)c1nc2ccccc2s1)C(F)(F)F` [Compound 25] were, in that order, 25 to 50 µg/mL (≈ 54.7 to 109 µM) and less than 1 µg/mL.
The corresponding values for `CCOC(=O)NC(=O)c1ccsc1NC(=O)c1ccc2ocnc2c1` [Compound 26] are greater than 50 µg/mL and less than 1 µg/mL.
Take `CCOC(=O)NC(=O)c1ccsc1NC(=O)c1ccc2c(c1)OCO2` [Compound 27]: the CC50 in the series “in vitro” was less than 25 µg/mL. The MIC in the series with Mtb (read-out: MIC (I)) was less than 1 µg/mL.
The like results for `O=C(NC(=O)c1ccsc1NC(=O)c1nc2ccccc2s1)OC1CCCCC1` [Compound 30] were, in that order, greater than 50 µg/mL and less than 1 µg/mL.
In the series “in vitro”, `O=C(NC(=O)c1ccsc1NC(=O)c1nc2ccccc2s1)OC1CCCC1` [Compound 31] came in with a CC50 greater than 50 µg/mL. Further, the MIC with Mtb (read-out: MIC (I)) is less than 1 µg/mL.
The corresponding values for `O=C(NC(=O)c1ccsc1NC(=O)c1nc2ccccc2s1)OCCN1CCOCC1` [Compound 38] are greater than 50 µg/mL and less than 1 µg/mL.
`CN(C)CCOC(=O)NC(=O)c1ccsc1NC(=O)c1nc2ccccc2s1` [Compound 39] had a CC50 in “in vitro” greater than 50 µg/mL. Moreover, the MIC with Mtb (read-out: MIC (I)) was greater than 3 µg/mL.
The corresponding values for `O=C(NC(=O)c1ccsc1NC(=O)c1nc2ccccc2s1)OCC(F)F` [Compound 40] are less than 25 µg/mL and less than 1 µg/mL.
The like results for `CCOC(=O)NC(=O)c1ccsc1NC(=O)c1ccc2ncsc2c1` [Compound 42] were, in that order, less than 25 µg/mL and less than 1 µg/mL.
The corresponding values for `CCOC(=O)NC(=O)c1c(C)csc1NC(=O)c1nc2ccccc2s1` [Compound 44] are greater than 50 µg/mL and 1 to 3 µg/mL (≈ 2.57 to 7.7 µM).
Take `CN(C)C(=O)NC(=O)c1ccsc1NC(=O)c1nc2ccccc2s1` [Compound 45]: in the series “in vitro”, the CC50 was greater than 50 µg/mL. For the same molecule, in the series with Mtb (read-out: MIC (I)), the MIC was greater than 3 µg/mL.
As for `CCOC(=O)NC(=O)c1cnn(C)c1NC(=O)c1nc2ccccc2s1` [Compound 105], the MIC in the series with Mtb (read-out: MIC (I)) is greater than 3 µg/mL.
On the same count and under the same terms, for `CCOC(=O)NC(=O)c1ncsc1NC(=O)c1nc2ccccc2s1` [Compound 106] the value was greater than 3 µg/mL.
For the molecule `O=C(Nc1sccc1C(=O)N1CCOC1=O)c1nc2ccccc2s1` [Compound 107], in the series on Mtb (read-out: MIC (I)), the MIC was greater than 3 µg/mL.
Same read-out and setting: next, `CCOS(=O)(=O)NC(=O)c1ccsc1NC(=O)c1nc2ccccc2s1` [Compound 108]: greater than 3 µg/mL; `CCNC(=O)NC(=O)c1ccsc1NC(=O)c1nc2ccccc2s1` [Compound 109]: greater than 3 µg/mL.
The same measure, in the same setting: next, `Cc1nnc(NC(=O)c2ccsc2NC(=O)c2nc3ccccc3s2)s1` [Compound 110]: greater than 3 µg/mL; `CCOC(=O)NC(=O)c1ccsc1NC(=O)c1cc(NC(C)=O)ccn1` [Compound 111]: greater than 3 µg/mL.
In turn, `CCOC(=O)NC(=O)c1ccsc1NCc1nc2ccccc2s1` [Compound 209] registered a CC50 in the series “in vitro” greater than 50 µg/mL.
The same measure, in the same setting: next, `Nc1nnc(-c2ccsc2NC(=O)c2nc3ccccc3s2)o1` [Compound 210]: greater than 50 µg/mL.
With `CCOC(=O)NC(=O)c1ccccc1NC(=O)c1nc2ccccc2s1` [Compound 214], the CC50 in “in vitro” was greater than 50 µg/mL.
Still for that read-out and setting: next, `CCOC(=O)NC(=O)c1c(NC(=O)c2nc3ccccc3s2)sc(C#N)c1C` [Compound 216]: greater than 50 µg/mL.
Consider `CCOC(=O)NC(=O)c1ccsc1NC(=O)c1nc2ccc(C)nc2s1` [Compound 224], for which the CC50 in “in vitro” is greater than 50 µg/mL.
Still for that read-out and setting: for `CN1CCN(C(=O)c2ccsc2NC(=O)c2nc3ccccc3s2)CC1` [Compound 225] the value was 25 to 50 µg/mL (≈ 64.7 to 129 µM).
The same measure, in the same setting: for `O=C(Nc1sccc1C(=O)N1CCNC1=O)c1nc2ccccc2s1` [Compound 226] the value was greater than 50 µg/mL; for `CC(C)(C)OC(=O)N1CCN(C(=O)c2ccsc2NC(=O)c2nc3ccccc3s2)CC1` [Compound 227], greater than 50 µg/mL.
`O=C(Nc1sccc1C(=O)N1CCNCC1)c1nc2ccccc2s1` [Compound 228] came in with a CC50 in the series “in vitro” of less than 25 µg/mL.
Still for that read-out and setting: for `CCOC(=O)NC(=O)c1ccsc1NC(=O)c1csc2c1CCN(S(C)(=O)=O)C2` [Compound 230] the value was greater than 50 µg/mL; for `CCOC(=O)NC(=O)c1ccsc1NC(=O)c1csc2c1CCCC2` [Compound 231], less than 25 µg/mL; for `CCOC(=O)NC(=O)c1ccsc1NC(=O)c1cc2c(s1)CCN(S(C)(=O)=O)C2` [Compound 232], greater than 50 µg/mL.
The same measure, in the same setting: next, `CCOC(=O)NC(=O)c1ccsc1NC(=O)c1nc2c(s1)N(S(C)(=O)=O)CCC2` [Compound 233]: greater than 50 µg/mL.
In turn, `COC(=O)CNC(=O)c1ccsc1NC(=O)c1nc2ccccc2s1` [Compound 234] had a CC50 in the series “in vitro” greater than 50 µg/mL.
Consider `CNC(=O)CNC(=O)c1ccsc1NC(=O)c1nc2ccccc2s1` [Compound 235], for which the CC50 in “in vitro” was greater than 50 µg/mL.
The same measure, in the same setting: for `COC(=O)CCCNC(=O)c1ccsc1NC(=O)c1nc2ccccc2s1` [Compound 236] the value was greater than 50 µg/mL; for `CCOC(=O)NC(=O)c1ccsc1NC(=O)Cc1nc2ccccc2s1` [Compound 238], 25 to 50 µg/mL (≈ 64.2 to 128 µM); for `CCOC(=O)NC(=O)c1ccsc1NC(=O)c1cc2c(s1)CCCC2` [Compound 239], greater than 50 µg/mL.
The same measure, in the same setting: next, `CCOC(=O)NC(=O)c1ccsc1NC(=O)c1nc(-c2ccccc2)cs1` [Compound 240]: greater than 50 µg/mL; `CCOC(=O)NC(=O)c1ccsc1NC(=O)c1ccc(-c2csc(C)n2)cc1` [Compound 241]: greater than 50 µg/mL.
As for `CCOC(=O)NC(=O)c1ccsc1NC(=O)c1cc(=O)c2ccccc2o1` [Compound 400], in “in vitro”, the CC50 is less than 25 µg/mL. Further, in the series on Mtb (setting [1]), the MIC was less than 1 µg/mL.
Regarding `CC(C)OC(=O)NC(=O)c1ccsc1NC(=O)c1cc(=O)c2ccccc2o1` [Compound 401], in the series “in vitro”, the CC50 was less than 25 µg/mL. Also, the MIC in the series on Mtb (setting [1]) was less than 1 µg/mL.
The like results for `CCOC(=O)NC(=O)c1ccsc1NC(=O)c1ccc2nonc2c1` [Compound 402] were, in that order, less than 25 µg/mL and less than 1 µg/mL.
Take `CC(C)OC(=O)NC(=O)c1ccsc1NC(=O)c1ccc2nonc2c1` [Compound 403]: in “in vitro”, the CC50 is less than 25 µg/mL. Moreover, the MIC in the series on Mtb (setting [1]) is less than 1 µg/mL.
The like results for `COc1ccc2c(c1)C=C(C(=O)Nc1sccc1C(=O)NC(=O)OC(C)C)CO2` [Compound 404] were, in that order, less than 25 µg/mL and less than 1 µg/mL.
The like results for `CCOC(=O)NC(=O)c1ccsc1NC(=O)c1cn2ccc(C#N)cc2n1` [Compound 405] were, in that order, less than 25 µg/mL and 1 to 3 µg/mL (≈ 2.61 to 7.82 µM).
`O=C(NC(=O)c1ccsc1NC(=O)c1nc2cnccc2s1)OCC(F)(F)F` [Compound 406] registered a CC50 in the series “in vitro” of less than 25 µg/mL. In the series with Mtb (setting [1]), the MIC was less than 1 µg/mL.
Take `CCOC(=O)NC(=O)c1ccsc1NC(=O)c1cc2cccc(F)c2s1` [Compound 407]: the CC50 in “in vitro” was less than 25 µg/mL. Moreover, the MIC with Mtb (setting [1]) is less than 1 µg/mL.
Molecule `CC(C)OC(=O)NC(=O)c1ccsc1NC(=O)c1cc2cccc(F)c2s1` [Compound 408] yielded a CC50 in the series “in vitro” of less than 25 µg/mL. Further, in the series on Mtb (setting [1]), the MIC is less than 1 µg/mL.
The corresponding values for `CCOC(=O)NC(=O)c1ccsc1NC(=O)c1nc2nc(C)c(Cl)cc2s1` [Compound 409] are 25 to 50 µg/mL (≈ 58.8 to 118 µM) and less than 1 µg/mL.
As for `CC(C)OC(=O)NC(=O)c1ccsc1NC(=O)c1ccc2ncsc2c1` [Compound 410], in “in vitro”, the CC50 is less than 25 µg/mL. Further, the MIC in the series on Mtb (setting [1]) was less than 1 µg/mL.
As to `CCOC(=O)NC(=O)c1cc(C)sc1NC(=O)c1nc2cnccc2s1` [Compound 443], the MIC in the series with Mtb (setting [1]) was less than 1 µg/mL.
On the same count and under the same terms, for `COC(=O)c1cccnc1NC(=O)c1nc2ccccc2s1` [Compound 444] the value was 1 to 3 µg/mL (≈ 3.19 to 9.57 µM); for `CCOC(=O)NC(=O)c1cc(Cl)sc1NC(=O)c1nc2cnccc2s1` [Compound 445], less than 1 µg/mL.
Still for that read-out and setting: for `CCOC(=O)NC(=O)c1cc(C)sc1NC(=O)c1nc2ncccc2s1` [Compound 446] the value was less than 1 µg/mL.
Consider `CC(C)OC(=O)NC(=O)c1ccsc1NC(=O)c1cccc2cc(Cl)ccc12` [Compound 447], for which, in the series on Mtb (setting [1]), the MIC was in the range of 1 to 3 µg/mL (≈ 2.4 to 7.2 µM).
Consider `CCOC(=O)NC(=O)c1ccsc1NC(=O)c1ccc2nsnc2c1` [Compound 448], for which the MIC in the series with Mtb (setting [1]) was less than 1 µg/mL.
Consider `CC(C)OC(=O)NC(=O)c1ccsc1NC(=O)c1ccc2nsnc2c1` [Compound 449], for which the MIC in the series with Mtb (setting [1]) is less than 1 µg/mL.
Same read-out and setting: next, `CCOC(=O)NC(=O)c1ccsc1NC(=O)c1ccnc2cc(Cl)ccc12` [Compound 450]: greater than 3 µg/mL.
As to `CCOC(=O)NC(=O)c1ccsc1NC(=O)c1ccn2cnnc2c1` [Compound 451], in the series on Mtb (setting [1]), the MIC is less than 1 µg/mL.
As to `CC(C)OC(=O)NC(=O)c1ccsc1NC(=O)c1ccn2cnnc2c1` [Compound 452], the MIC in the series with Mtb (setting [1]) is less than 1 µg/mL.
Consider `O=C(Nc1sccc1C(=O)Nc1ccccn1)c1nc2cnccc2s1` [Compound 454], for which, in the series with Mtb (setting [1]), the MIC was greater than 3 µg/mL.
With `O=C(Nc1sccc1C(=O)NCC1CCCO1)c1nc2cnccc2s1` (centres unmarked) [Compound 455], the MIC in the series with Mtb (setting [1]) was greater than 3 µg/mL.
On to `O=C(Nc1sccc1C(=O)Nc1ncco1)c1nc2cnccc2s1` [Compound 456], for which the MIC in the series on Mtb (setting [1]) was in the range of 1 to 3 µg/mL (≈ 2.69 to 8.08 µM).
Regarding `CCOC(=O)NC(=O)c1ccsc1NC(=O)c1nc2ncc(C)cc2s1` [Compound 457], the MIC with Mtb (setting [1]) was less than 1 µg/mL.
The same measure, in the same setting: next, `CCOC(=O)NC(=O)c1ccsc1NC(=O)c1nc2ccncc2s1` [Compound 458]: greater than 3 µg/mL.
